Data reported in PMC12595617, “Investigating the potential role of metabolic resistance genes in conferring cross-resistance to pyrethroids and polycyclic aromatic hydrocarbon pollutants in the major malaria vector Anopheles coluzzii” (BMC Genomics, 2025).
Values joined by “and” are separate entries in the source; they are usually repeats but may differ in a detail not shown here. Identical values can stand only once. Like-named read-outs stand apart in the source and are kept apart here. Blank lines part the entries; values can stand above or below the molecule they belong to.

Key:
Ngousso microsomes = assay: Microsomal P450 activity with model probe substrate DEF, Ngousso; assay type: biochemical, Anopheles coluzzii; details: 10 µM DEF, 0.05 µM P450, read for 15 min
Protocol: (§1) P450 activity was determined in the prepared microsomes from both Auyo and Ngousso strains using diethoxyfluorescein (DEF) as the model fluorogenic substrate using the methods earlier described. Briefly, the enzyme-buffer mix consisted of 0.05 µM of cytochrome P450 (microsomes), 50 mM potassium phosphate buffer, pH 7.4, 0.5 µM cytochrome b5 and 10 µM DEF. To initiate the reactions in a 96-well plates (Thermo Labsystems, Basingstoke, UK), a NADPH ([…]) regeneration mix (consisting of 1mM glucose-6-phosphate, 0.1 M NADP+, 0.25mM magnesium chloride, IU/ml glucose-6-phosphate dehydrogenase and 50 mM potassium phosphate buffer pH 7.4) was added in the positive replicates whereas the same buffer with no NADPH was added in the negative wells. Using the excitation (482 nm) and emission (520 nm) wavelengths of DEF, the […] was read for 15 min, and the relative fluorescence unit per min per picomole of the P450 (RFU/min/pmol of P450) was determined.

Auyo microsomes [1] = assay: Microsomal P450 activity with model probe substrate DEF, Auyo; assay type: biochemical, Anopheles coluzzii; details: 10 µM DEF, 0.05 µM P450, read for 15 min
Protocol: as §1

[2] = test system: microsomes prepared from pyrethroid-resistant Anopheles coluzzii (Auyo); details: Auyo (field-resistant) larval microsomes, 0.05 µM P450, 20 µM PAH, 2 h, 30 °C, +NADPH vs -NADPH, mean ± SD of three replicates
Protocol: To compare the metabolic activity of the microsomes and the recombinant cytochrome P450s towards PAH metabolism assays were conducted side by side as described earlier. The NADPH regeneration mixture (consisting of 0.1 M NADP+, 50mM potassium phosphate buffer, pH 7.4, 1 mM glucose-6-phosphate, 0.25 mM magnesium chloride and 1U/ml glucose-6-phosphate dehydrogenase) was used in the positive replicates. For the negatives, the same buffer with no added NADP + was used. Enzyme-buffer mix comprised of 0.05 µM recombinant P450 or microsome, 0.4 µM cytochrome b5, 50 mM potassium phosphate buffer pH 7.4 and 20 µM of the PAH substrates. To initiate the reactions, regeneration mixture was added to the enzyme-buffer mix in a 1:1 ratio (total of 200 µl) following activation for 5 min at 30 °C and 1200 rpm shaking. The reaction was run for 2 h at 30 °C with 200 rpm shaking. To stop the reaction, 200 µl of ice-cold High Performance Liquid Chromatography (HPLC) grade acetonitrile was added, followed by additional shaking for 5 min to precipitate the proteins. The mixture was kept on ice for 10 min before centrifuging at 16,000xg for 20 min. […]
(§2) Using the Agilent HPLC 1200 infinity series, analysis of the PAHs metabolism was conducted. The HPLC conditions consisted of mobile phases of HPLC grade acetonitrile and water in the ratio of 80/20 and detected at a wavelength of 254 nm.

recombinant CYP6Z3 = test system: recombinant CYP6Z3
Protocol: (§3) The recombinant P450s used in this study were acquired from the enzyme characterization group (ECG) leader, Dr. Mark J.I. Paine of the Vector Biology Department, Liverpool School of Tropical Medicine. All the P450s were expressed from field-resistant populations of An. gambiae except for CYP6P9a, which was expressed from An. funestus. The heterologous expression of the P450s was conducted according to the previously described approaches. Briefly, P450s were expressed by using ompA and pelB signal sequences to direct P450 and An. gambiae CPR (AgCPR), respectively, to the inner membrane of E. coli a functional monooxygenase. The P450 sequences were amplified from cDNA and fused to the ompA signal peptides in simple PCR reactions. This is followed by ligation of the digested fragments into linearized expression vector pCWori+, thereby creating a construct pB13:ompA + 2-P450. Competent JM109 cells were co-transformed with plasmids pB13:ompA + 2-P450 and pACYC-AgCPR for the expression of functional P450 and An. gambiae CPR, respectively. Colonies carrying the two plasmids as confirmed by the colony PCR are used for a 12–14 h starter culture overnight. Typically, 0.2 L cultures were supplemented with 2 mL from the starter cultures and incubated at 37 °C and 200 rpm shaking while the absorbance at 600 nm was being monitored. When the OD reached 0.6–0.8, the cultures were cooled down to 25 °C for 30 min with shaking at 150 rpm. Induction with 1 mM isopropyl β-D-1-thiogalactopyranoside (IPTG) and 0.5 mM 5-aminolaevulinic acid (ALA) was conducted. Determinations of the P450 content and CPR activity were conducted using the procedure of [61] and [60], respectively.
(§4) To compare the metabolic activity of the microsomes and the recombinant cytochrome P450s towards PAH metabolism assays were conducted side by side as described earlier. The NADPH regeneration mixture (consisting of 0.1 M NADP+, 50mM potassium phosphate buffer, pH 7.4, 1 mM glucose-6-phosphate, 0.25 mM magnesium chloride and 1U/ml glucose-6-phosphate dehydrogenase) was used in the positive replicates. For the negatives, the same buffer with no added NADP + was used. Enzyme-buffer mix comprised of 0.05 µM recombinant P450 or microsome, 0.4 µM cytochrome b5, 50 mM potassium phosphate buffer pH 7.4 and 20 µM of the PAH substrates. To initiate the reactions, regeneration mixture was added to the enzyme-buffer mix in a 1:1 ratio (total of 200 µl) following activation for 5 min at 30 °C and 1200 rpm shaking. The reaction was run for 2 h at 30 °C with 200 rpm shaking. To stop the reaction, 200 µl of ice-cold High Performance Liquid Chromatography (HPLC) grade acetonitrile was added, followed by additional shaking for 5 min to precipitate the proteins. The mixture was kept on ice for 10 min before centrifuging at 16,000xg for 20 min. The supernatants were filtered through 0.45 μm PTFE filters (ThermoFisher Scientific, MA, USA) and filtrate transferred to HPLC vials for onward analysis.
as §2

recombinant CYP6Z2 = test system: recombinant CYP6Z2
Protocol: as §3, §4, §2

recombinant CYP6P3 = details: recombinant CYP6P3, 0.05 µM P450, 20 µM PAH, 2 h, 30 °C, +NADPH vs -NADPH
Protocol: as §3, §4, §2

Auyo microsomal P450 = assay: in vitro; assay type: in vitro ADME, Anopheles coluzzii
Protocol: For the determination of steady-state kinetic parameters, assays were conducted for 30 min with 0.05 µM microsomal P450 while varying the concentrations of fluorene (0–600 µM). Kinetics plot of velocity against the substrate concentrations was made using the least squares non-linear regression in GraphPad Prism 6.03 Software (GraphPad Inc., La Jolla, CA, USA) that fits into the canonical Michaelis-Menten model as previously described for pyrethroid insecticides.

CYP6P4 = assay type: in vitro ADME, An. gambiae; details: Anopheles gambiae, 2 h, 20 µM, pH 7.4
Protocol: (§5) To compare the metabolic activity of the microsomes and the recombinant cytochrome P450s towards PAH metabolism assays were conducted side by side as described earlier [38, 43]. The NADPH regeneration mixture (consisting of 0.1 M NADP+, 50mM potassium phosphate buffer, pH 7.4, 1 mM glucose-6-phosphate, 0.25 mM magnesium chloride and 1U/ml glucose-6-phosphate dehydrogenase) was used in the positive replicates. For the negatives, the same buffer with no added NADP + was used. Enzyme-buffer mix comprised of 0.05 µM recombinant P450 or microsome, 0.4 µM cytochrome b5, 50 mM potassium phosphate buffer pH 7.4 and 20 µM of the PAH substrates. To initiate the reactions, regeneration mixture was added to the enzyme-buffer mix in a 1:1 ratio (total of 200 µl) following activation for 5 min at 30 °C and 1200 rpm shaking. The reaction was run for 2 h at 30 °C with 200 rpm shaking. […]
(§6) Using the Agilent HPLC 1200 infinity series, analysis of the PAHs metabolism was conducted. The HPLC conditions consisted of mobile phases of HPLC grade acetonitrile and water in the ratio of 80/20 and detected at a wavelength of 254 nm. […] Percentage depletions for each compound were calculated in both the microsomal and recombinant P450 studies. […]

CYP9K1 = assay type: in vitro ADME, An. gambiae; details: Anopheles gambiae, 2 h, 20 µM, pH 7.4
Protocol: as §5, §6

Auyo microsomes [3] = assay: Fluorene turnover assay using microsomes; assay type: in vitro ADME, Anopheles coluzzii; details: fluorene 30 µM, run time 15-150 min
Protocol: Because of the higher percentage of depletion observed in the Auyo microsomal metabolism of fluorene, it was chosen to be analysed further for its turnover and kinetic studies. To understand the turnover rates of the fluorene depletions, reaction run time was varied between 15 and 150 min. Specific points used were 15, 30, 45, 60, 90, 120 and 150 min while the fluorene concentration was maintained at 30 µM in all these time points.

CYP9J5 = assay type: in vitro ADME, An. gambiae; details: Anopheles gambiae, 2 h, 20 µM, pH 7.4
Protocol: as §5, §6

[4] = test system: all the recombinant P450s used in this study (CYPs 6M2, 6Z2, 6Z3, 9J5, 6P3, 6P4, 6P5, CYP9K1, CYP6P9a); assay: In vitro metabolism of PAHs with the whole recombinant P450 panel; assay type: in vitro ADME, An. gambiae / An. funestus; details: Anopheles gambiae; Anopheles funestus (CYP6P9a), 2 h, 20 µM, pH 7.4
Protocol: as §5, §6

Compound: CCOc1ccc2c(c1)Oc1cc(OCC)ccc1C21OC(=O)c2ccccc21 [DEF, diethoxyfluorescein]
DEF activity (Ngousso microsomes): 4.4 RFU/min/pmole P450
DEF activity (Auyo microsomes [1]): 4.9 RFU/min/pmole P450

Compound: c1ccc2c(c1)-c1cccc3cccc-2c13 [fluoranthene]
percentage depletion [2]: 22.8 ± 5.2%
metabolic activity (in words) (recombinant CYP6Z3; recombinant CYP6Z3): strong metabolic activity
metabolic activity (in words) (recombinant CYP6Z2; recombinant CYP6Z2): strong metabolic activity
percentage depletion (recombinant CYP6P3): more than 40%

metabolic activity (in words) (recombinant CYP6Z3): strong metabolic activity
metabolic activity (in words) (recombinant CYP6Z2): strong metabolic activity
Km at 30 min (Auyo microsomal P450; Anopheles coluzzii): 58.7 µM
percentage depletion (CYP6P4): 9.3%
percentage depletion (CYP9K1): 8.5%
percentage depletion (CYP9J5): 7.7%
Compound: c1ccc2c(c1)Cc1ccccc1-2 [fluorene]
Catalytic rate (Kcat) (Auyo microsomal P450; Auyo microsomes, 0.05 µM microsomal P450, 30 min, fluorene 0–600 µM): 0.06993 s⁻¹ and 0.07 ± 0.00733 s⁻¹
catalytic efficiency (Auyo microsomal P450; Auyo microsomes, fluorene): 0.0715 ± 0.026 min⁻¹ µM⁻¹
Turnover (Auyo microsomes [3]): 37.016 min⁻¹ and 37.02 min⁻¹

percentage depletion [4]: < 10%
Compound: c1ccc2ccccc2c1 [naphthalene]
